Test results taken from US10100097B2, “GIP-GLP-1 dual agonist compounds and methods” (Zealand Pharma A/S, priority 2012, dated 2018).
Read-outs that look alike come from different tables or passages of the source. Numbered stars: 1 amine (or outer) side, 2 acyl side, 3 side chain; on linkers, the order of the positions; unused ones are H or OH. Square brackets hold non-standard residues; d marks the D form. Side chains are listed from the residue outwards. Peptide text beside a SMILES is read from it. * marks the point of attachment. C16 diacid = O=C(O)CCCCCCCCCCCCCCC(=O)*; γGlu = O=C(O)[C@H](CCC(=O)[*:2])N[*:1]; Palmitoyl = CCCCCCCCCCCCCCCC(=O)*; Aib = CC(C)(N)C(=O)O

Key:
human GIP R = molecular target: T1, human GIP R (Homo sapiens, UniProt P48546); assay: Human GIP receptor (GIP R) activity assay, cAMP induction (AlphaScreen cAMP kit); type: cell-based
T1 construct: expressed in transfected cells
T1 sequence (P48546 22-466): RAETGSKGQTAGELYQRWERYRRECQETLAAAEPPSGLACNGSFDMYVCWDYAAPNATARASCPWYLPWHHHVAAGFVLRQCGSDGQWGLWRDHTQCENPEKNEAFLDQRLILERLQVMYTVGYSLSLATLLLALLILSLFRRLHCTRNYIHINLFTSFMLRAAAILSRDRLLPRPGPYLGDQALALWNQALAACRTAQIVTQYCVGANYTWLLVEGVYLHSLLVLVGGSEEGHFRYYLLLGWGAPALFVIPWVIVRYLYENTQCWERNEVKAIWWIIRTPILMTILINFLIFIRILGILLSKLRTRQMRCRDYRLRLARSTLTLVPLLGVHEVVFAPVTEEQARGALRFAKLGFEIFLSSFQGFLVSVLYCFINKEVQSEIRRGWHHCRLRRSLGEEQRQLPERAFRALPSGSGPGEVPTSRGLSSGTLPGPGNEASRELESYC
Experimental: Human GIP Receptor (GIP R) and GLP-1 Receptor (GLP-1 R) Activity Assay
In vitro effects of peptide conjugates of the invention were assessed by measuring the induction of cAMP following stimulation of the respective receptor by GIP, GLP1 or analogues of these, as outlined in the invention, using the AlphaSceen® cAMP kit from Perkin-Elmer according to instructions. Briefly. HEK293 cells expressing the human GIP R or GLP-1 R (stable cell lines generated through transfection of the cDNA for human GIP R or GLP-1 and selection of stable clones) were seeded at 30,000 cells/well in 96-well microtiter plates coated with 0.01% poly-L-lysine, and grown for 1 day in culture in 200 μl growth medium (DMEM, 10% FCS, Penicillin (100 IU/ml), Streptomycin (100 μg/ml)). On the day of analysis, growth medium was removed and the cells were washed once with […] Tyrode's buffer (Tyrode's Salts (9.6 g/1), 10 mM HEPES, pH 7.4). […] The Assay buffer was removed and cells are lysed in 80 μl Lysis buffer (0.1% w/v BSA, 5 mM HEPES, 0.3% v/v Tween-20) per well. From each well 10 μl lysed cells was transferred to a 384-well plate and mixed with 15 μl bead-mix (1 Unit/15 μl anti-cAMP Acceptor Beads, 1 Unit/15 μl Donor Beads, and 1 Unit/15 μl Biotinylated cAMP in Assay Buffer). The plates were mixed and incubated in the dark for an hour at room temperature before measuring using an Envision™ plate reader (Perkin-Elmer).

human GLP-1 R = molecular target: T2, human GLP-1 R (Homo sapiens, UniProt P43220); assay: Human GLP-1 receptor (GLP-1 R) activity assay, cAMP induction (AlphaScreen cAMP kit); type: cell-based; conditions: HEK293 cells expressing the human GLP-1 R, 15 min at 37° C., average values of multiple determinations, read-out: GLP1 R (EC50 in nM)
T2 construct: expressed in transfected cells
Method in brief: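 Stable HEK293 clones expressing human GIP R or GLP-1 R, grown 1 day, washed in Tyrode's buffer (10 mM HEPES, pH 7.4), then stimulated with peptide. Cells lysed and cAMP quantified by AlphaScreen competition with biotinylated cAMP, 1 h dark incubation at room temperature.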

[1] = HEK293 cells expressing the human GIP R, cAMP induction, 15 min at 37° C., average values of multiple determinations, read-out: GIP R (EC50 in nM)

T2 sequence (P43220 24-463): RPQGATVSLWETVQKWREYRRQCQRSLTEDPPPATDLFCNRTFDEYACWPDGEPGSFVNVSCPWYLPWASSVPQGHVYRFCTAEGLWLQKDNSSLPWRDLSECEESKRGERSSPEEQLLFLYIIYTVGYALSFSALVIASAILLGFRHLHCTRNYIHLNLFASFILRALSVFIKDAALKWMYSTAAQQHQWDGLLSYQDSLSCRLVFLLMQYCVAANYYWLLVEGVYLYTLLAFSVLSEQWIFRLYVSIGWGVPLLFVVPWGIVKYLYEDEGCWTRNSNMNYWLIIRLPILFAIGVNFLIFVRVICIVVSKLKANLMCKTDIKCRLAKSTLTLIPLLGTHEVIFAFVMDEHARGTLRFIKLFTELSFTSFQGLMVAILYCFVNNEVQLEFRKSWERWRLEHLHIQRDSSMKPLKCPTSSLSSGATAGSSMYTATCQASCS

SMILES	EC50 (human GIP R; [1])	other results
CC[C@H](C)[C@H](NC(=O)[C@H](CCCCN)NC(=O)[C@H](CCC(=O)O)NC(=O)[C@H](CC(C)C)NC(=O)[C@H](Cc1ccc(O)cc1)NC(=O)[C@@H](NC(=O)[C@H](CO)NC(=O)[C@H](Cc1ccc(O)cc1)NC(=O)[C@H](CC(=O)O)NC(=O)[C@H](CO)NC(=O)[C@@H](NC(=O)[C@H](Cc1ccccc1)NC(=O)[C@@H](NC(=O)CNC(=O)[C@H](CCC(=O)O)NC(=O)C(C)(C)NC(=O)[C@@H](N)Cc1ccc(O)cc1)[C@@H](C)O)[C@@H](C)CC)[C@@H](C)CC)C(=O)N[C@@H](C)C(=O)N[C@@H](C)C(=O)N[C@@H](CCCCN)C(=O)N[C@@H](CCC(=O)O)C(=O)N[C@@H](Cc1ccccc1)C(=O)N[C@H](C(=O)N[C@@H](CC(N)=O)C(=O)N[C@@H](Cc1c[nH]c2ccccc12)C(=O)N[C@@H](CC(C)C)C(=O)N[C@@H](CC(C)C)C(=O)N[C@@H](C)C(=O)N[C@@H](CCC(N)=O)C(=O)N[C@@H](CCCCN)C(N)=O)C(C)C [Compound 4] (H-Y[Aib]EGTFISDYSIYLEKIAAKEFVNWLLAQK-NH2)		EC50 (human GIP R): 0.022 nM
CC[C@H](C)[C@H](NC(=O)[C@H](CO)NC(=O)[C@H](Cc1ccc(O)cc1)NC(=O)[C@H](CC(=O)O)NC(=O)[C@H](CO)NC(=O)[C@@H](NC(=O)[C@H](Cc1ccccc1)NC(=O)[C@@H](NC(=O)CNC(=O)[C@H](CCC(=O)O)NC(=O)C(C)(C)NC(=O)[C@@H](N)Cc1ccc(O)cc1)[C@@H](C)O)[C@@H](C)O)C(=O)N[C@@H](Cc1ccc(O)cc1)C(=O)N[C@@H](CO)C(=O)N[C@@H](CC(=O)O)C(=O)N[C@@H](CCCCN)C(=O)N[C@@H](CCCCN)C(=O)N[C@@H](C)C(=O)N[C@@H](CCC(N)=O)C(=O)N[C@@H](CCCNC(=N)N)C(=O)N[C@@H](C)C(=O)N[C@@H](Cc1ccccc1)C(=O)N[C@H](C(=O)N[C@@H](CC(N)=O)C(=O)N[C@@H](Cc1c[nH]c2ccccc12)C(=O)N[C@@H](CC(C)C)C(=O)N[C@@H](CC(C)C)C(=O)N[C@@H](C)C(=O)NC(C)(C)C(=O)N[C@@H](CCCCN)C(N)=O)C(C)C [Compound 13] (H-Y[Aib]EGTFTSDYSIYSDKKAQRAFVNWLLA[Aib]K-NH2)	0.14 nM	
CC[C@H](C)[C@H](NC(=O)[C@H](CO)NC(=O)[C@H](Cc1ccc(O)cc1)NC(=O)[C@H](CC(=O)O)NC(=O)[C@H](CO)NC(=O)[C@@H](NC(=O)[C@H](Cc1ccccc1)NC(=O)[C@@H](NC(=O)CNC(=O)[C@H](CCC(=O)O)NC(=O)C(C)(C)NC(=O)[C@@H](N)Cc1ccc(O)cc1)[C@@H](C)O)[C@@H](C)O)C(=O)N[C@@H](Cc1ccc(O)cc1)C(=O)N[C@@H](CC(C)C)C(=O)N[C@@H](CC(=O)O)C(=O)N[C@@H](CCCCN)C(=O)N[C@@H](CCCCN)C(=O)N[C@@H](C)C(=O)N[C@@H](CCC(N)=O)C(=O)N[C@@H](CCCCN)C(=O)N[C@@H](CCC(=O)O)C(=O)N[C@@H](Cc1ccccc1)C(=O)N[C@H](C(=O)N[C@@H](CC(N)=O)C(=O)N[C@@H](Cc1c[nH]c2ccccc12)C(=O)N[C@@H](CC(C)C)C(=O)N[C@@H](CC(C)C)C(=O)N[C@@H](C)C(=O)NC(C)(C)C(=O)N[C@@H](CCCCN)C(N)=O)C(C)C [Compound 19] (H-Y[Aib]EGTFTSDYSIYLDKKAQKEFVNWLLA[Aib]K-NH2)	0.015 nM	
CC[C@H](C)[C@H](NC(=O)[C@H](CO)NC(=O)[C@H](Cc1ccc(O)cc1)NC(=O)[C@H](CC(=O)O)NC(=O)[C@H](CO)NC(=O)[C@@H](NC(=O)[C@H](Cc1ccccc1)NC(=O)[C@@H](NC(=O)CNC(=O)[C@H](CCC(=O)O)NC(=O)C(C)(C)NC(=O)[C@@H](N)Cc1ccc(O)cc1)[C@@H](C)O)[C@@H](C)O)C(=O)N[C@@H](Cc1ccc(O)cc1)C(=O)N[C@@H](CC(C)C)C(=O)N[C@@H](CC(=O)O)C(=O)N[C@@H](CCCCN)C(=O)N[C@@H](CCCCN)C(=O)N[C@@H](C)C(=O)N[C@@H](CCC(N)=O)C(=O)N[C@@H](CCCNC(=N)N)C(=O)N[C@@H](C)C(=O)N[C@@H](Cc1ccccc1)C(=O)N[C@H](C(=O)N[C@@H](CC(N)=O)C(=O)N[C@@H](Cc1c[nH]c2ccccc12)C(=O)N[C@@H](CC(C)C)C(=O)N[C@@H](CC(C)C)C(=O)NC(C)(C)C(=O)N[C@@H](CCCCN)C(N)=O)C(C)C [Compound 24] (H-Y[Aib]EGTFTSDYSIYLDKKAQRAFVNWLL[Aib]K-NH2)	0.096 nM	
CC[C@H](C)[C@H](NC(=O)[C@H](CO)NC(=O)[C@H](Cc1ccc(O)cc1)NC(=O)[C@H](CC(=O)O)NC(=O)[C@H](CO)NC(=O)[C@@H](NC(=O)[C@H](Cc1ccccc1)NC(=O)[C@@H](NC(=O)CNC(=O)[C@H](CCC(=O)O)NC(=O)C(C)(C)NC(=O)[C@@H](N)Cc1ccc(O)cc1)[C@@H](C)O)[C@@H](C)O)C(=O)N[C@@H](Cc1ccc(O)cc1)C(=O)N[C@@H](CC(C)C)C(=O)N[C@@H](CC(=O)O)C(=O)N[C@@H](CCCCN)C(=O)N[C@@H](CCCCNC(=O)CC[C@H](NC(=O)CCCCCCCCCCCCCCC(=O)O)C(=O)O)C(=O)N[C@@H](C)C(=O)N[C@@H](CCC(N)=O)C(=O)N[C@@H](CCCNC(=N)N)C(=O)N[C@@H](C)C(=O)N[C@@H](Cc1ccccc1)C(=O)N[C@H](C(=O)N[C@@H](CC(N)=O)C(=O)N[C@@H](Cc1c[nH]c2ccccc12)C(=O)N[C@@H](CC(C)C)C(=O)N[C@@H](CC(C)C)C(=O)N[C@@H](C)C(=O)NC(C)(C)C(=O)N[C@@H](CCCCN)C(N)=O)C(C)C [Compound 31] (H-Y[Aib]EGTFTSDYSIYLDKK([γGlu-C16 diacid])AQRAFVNWLLA[Aib]K-NH2)	0.022 nM	
CCCCCCCCCCCCCCCC(=O)N[C@@H](CCC(=O)NCCCC[C@H](NC(=O)[C@H](CO)NC(=O)[C@H](CC(=O)O)NC(=O)[C@H](CC(C)C)NC(=O)[C@H](Cc1ccc(O)cc1)NC(=O)[C@@H](NC(=O)[C@H](CO)NC(=O)[C@H](Cc1ccc(O)cc1)NC(=O)[C@H](CC(=O)O)NC(=O)[C@H](CO)NC(=O)[C@@H](NC(=O)[C@H](Cc1ccccc1)NC(=O)[C@@H](NC(=O)CNC(=O)[C@H](CCC(=O)O)NC(=O)C(C)(C)NC(=O)[C@@H](N)Cc1ccc(O)cc1)[C@@H](C)O)[C@@H](C)O)[C@@H](C)CC)C(=O)N[C@@H](C)C(=O)N[C@@H](C)C(=O)N[C@@H](Cc1c[nH]cn1)C(=O)N[C@@H](CC(=O)O)C(=O)N[C@@H](Cc1ccccc1)C(=O)N[C@H](C(=O)N[C@@H](CCC(=O)O)C(=O)N[C@@H](Cc1c[nH]c2ccccc12)C(=O)N[C@@H](CC(C)C)C(=O)N[C@@H](CC(C)C)C(=O)N[C@@H](CCCNC(=N)N)C(=O)N[C@@H](C)C(N)=O)C(C)C)C(=O)O [Compound 47] (H-Y[Aib]EGTFTSDYSIYLDSK([γGlu-Palmitoyl])AAHDFVEWLLRA-NH2)	0.096 nM	
CC[C@H](C)[C@H](NC(=O)[C@H](CO)NC(=O)[C@H](Cc1ccc(O)cc1)NC(=O)[C@H](CC(=O)O)NC(=O)[C@H](CO)NC(=O)[C@@H](NC(=O)[C@H](Cc1ccccc1)NC(=O)[C@@H](NC(=O)CNC(=O)[C@H](CCC(=O)O)NC(=O)C(C)(C)NC(=O)[C@@H](N)Cc1ccc(O)cc1)[C@@H](C)O)[C@@H](C)O)C(=O)N[C@@H](Cc1ccc(O)cc1)C(=O)N[C@@H](CC(C)C)C(=O)N[C@@H](CC(=O)O)C(=O)N[C@@H](CO)C(=O)N[C@@H](CCCCN)C(=O)N[C@@H](C)C(=O)N[C@@H](C)C(=O)N[C@@H](Cc1c[nH]cn1)C(=O)N[C@@H](CC(=O)O)C(=O)N[C@@H](Cc1ccccc1)C(=O)N[C@H](C(=O)N[C@@H](CCC(=O)O)C(=O)N[C@@H](Cc1c[nH]c2ccccc12)C(=O)N[C@@H](CC(C)C)C(=O)N[C@@H](CC(C)C)C(=O)N[C@@H](CO)C(=O)N[C@@H](C)C(=O)NCC(=O)N1CCC[C@H]1C(=O)N[C@@H](CO)C(=O)N[C@@H](CO)C(=O)NCC(=O)N[C@@H](C)C(=O)N1CCC[C@H]1C(=O)N1CCC[C@H]1C(=O)N1CCC[C@H]1C(=O)N[C@@H](CO)C(N)=O)C(C)C [Compound 55] (H-Y[Aib]EGTFTSDYSIYLDSKAAHDFVEWLLSAGPSSGAPPPS-NH2)		EC50 (human GLP-1 R): 0.0087 nM
